Publication PMC6956259, “Mechanistic Evaluation of Enhanced Curcumin Delivery through Human Skin In Vitro from Optimised Nanoemulsion Formulations Fabricated with Different Penetration Enhancers” (Pharmaceutics, 2019)
Like-named read-outs stand apart in the source and are kept apart here.

Columns and labels:
[1] = cited from earlier work
[2] = Stability of curcumin in the receptor medium; format: physicochemical; conditions: 6% Volpo in water, 35 °C, at 0, 1, 6, 12 and 24 h
Procedure: Standard solutions of curcumin (5, 10, 12.5 and 25 µg/mL) were prepared in a 6% Volpo aqueous solution and stored at 35 ± 0.5 °C for 24 h. Samples removed at 1, 6, 12 and 24 h were assayed for drug content by HPLC.

Structure (SMILES)	log P [1]	log P ([1]; no reference given)	Amount of curcumin remaining [2]
CCCCOC(=O)c1ccc(O)cc1 [butyl paraben, reference compound]	3.6	–	–
COc1cc(/C=C/C(=O)CC(=O)/C=C/c2ccc(O)c(OC)c2)ccc1O [curcumin, Curcumin]	–	3.6	> 99%
